# Reference: paper PMC7190177, “Click chemistry-facilitated comprehensive identification of proteins adducted by antimicrobial 5-nitroimidazoles for discovery of alternative drug targets against giardiasis” (PLoS Neglected Tropical Diseases, 2020)
# Key:
# Enolase = biological target: T1, Enolase (Giardia duodenalis, UniProt E2RTS6); experiment: click biotinylation, streptavidin pull-down from treated trophozoites, LC-MS/MS and immunoblot; assay type: cell-based; details: covalent; prodrug reduced in the cells; 100 uM, 2 h
# T1 construct: gene GL50803_0011118; native protein in trophozoites, 445 aa
# T1 sequence (E2RTS6 1-445): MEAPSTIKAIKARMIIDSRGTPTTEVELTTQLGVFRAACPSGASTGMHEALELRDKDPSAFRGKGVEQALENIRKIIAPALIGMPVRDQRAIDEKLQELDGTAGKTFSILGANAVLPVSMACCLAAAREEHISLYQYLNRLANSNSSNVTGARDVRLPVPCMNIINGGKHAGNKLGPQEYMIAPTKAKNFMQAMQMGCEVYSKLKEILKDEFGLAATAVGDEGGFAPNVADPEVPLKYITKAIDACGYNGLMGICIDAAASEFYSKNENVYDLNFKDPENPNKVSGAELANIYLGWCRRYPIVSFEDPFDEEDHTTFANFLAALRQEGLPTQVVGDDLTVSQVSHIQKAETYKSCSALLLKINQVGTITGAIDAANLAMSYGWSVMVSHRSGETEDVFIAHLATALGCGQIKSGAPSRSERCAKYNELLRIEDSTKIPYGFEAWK
# Arginine deiminase (ADI) = biological target: T2, Arginine deiminase (ADI) (Giardia duodenalis, UniProt E2RU36); experiment: colorimetric citrulline-detection assay of recombinant His-tagged ADI; assay type: biochemical; details: 500 uM Mz-alkyne + 1 mM dithionite (reductive activation of prodrug), 2 h; 1 mM arginine, Hepes pH 7.0, 37 C; covalent
# T2 construct: gene GL50803_00112103; full-length 580 aa, C-terminal His tag (pETite C-His), E. coli BL21-CodonPlus(DE3)-RIL
# [1] = biological target: T3, Ornithine carbamoyltransferase (OCT) (Giardia duodenalis, UniProt E2RTT6); experiment: click biotinylation, streptavidin pull-down from treated trophozoites, LC-MS/MS and immunoblot; assay type: cell-based; details: covalent; prodrug reduced in the cells; 100 uM, 2 h
# T3 construct: gene GL50803_0010311; native protein in trophozoites, 327 aa
# T3 sequence (E2RTT6 1-327): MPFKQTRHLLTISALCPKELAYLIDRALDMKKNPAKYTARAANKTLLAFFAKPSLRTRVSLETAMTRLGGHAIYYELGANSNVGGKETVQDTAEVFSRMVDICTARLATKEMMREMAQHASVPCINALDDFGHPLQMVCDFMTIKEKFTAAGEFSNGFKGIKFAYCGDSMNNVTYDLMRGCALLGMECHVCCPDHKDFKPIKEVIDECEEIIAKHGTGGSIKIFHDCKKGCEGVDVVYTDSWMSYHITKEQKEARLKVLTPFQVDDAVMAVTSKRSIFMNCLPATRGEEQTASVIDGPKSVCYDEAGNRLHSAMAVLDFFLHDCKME
# T2 sequence (E2RU36 entry or part of it): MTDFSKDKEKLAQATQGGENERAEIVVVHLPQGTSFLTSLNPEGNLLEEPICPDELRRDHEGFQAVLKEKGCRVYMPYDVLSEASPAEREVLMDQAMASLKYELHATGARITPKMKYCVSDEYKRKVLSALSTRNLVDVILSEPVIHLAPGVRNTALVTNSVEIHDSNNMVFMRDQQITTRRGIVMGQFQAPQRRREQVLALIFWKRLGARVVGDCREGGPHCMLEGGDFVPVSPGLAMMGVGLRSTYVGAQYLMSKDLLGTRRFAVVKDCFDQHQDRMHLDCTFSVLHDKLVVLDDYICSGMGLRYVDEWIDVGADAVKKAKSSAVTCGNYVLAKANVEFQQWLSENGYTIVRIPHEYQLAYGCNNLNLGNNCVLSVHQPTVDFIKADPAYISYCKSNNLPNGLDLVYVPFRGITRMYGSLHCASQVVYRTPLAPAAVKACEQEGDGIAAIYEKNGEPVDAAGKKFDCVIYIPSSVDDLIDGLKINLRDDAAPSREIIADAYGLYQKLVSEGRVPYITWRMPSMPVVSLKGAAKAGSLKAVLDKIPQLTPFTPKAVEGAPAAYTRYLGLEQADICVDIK
structure (smiles),measurement,setting,value
"C#CCCn1c([N+](=O)[O-])cnc1C [Mz-alkyne, 1-(But-3-ynyl)-2-methyl-5-nitro-1H-imidazole]",adduct,Enolase,these proteins were labeled with biotin and thus adducted by Mz-alkyne
same,inhibition,Arginine deiminase (ADI),Wild-type ADI was significantly inhibited by activated Mz-alkyne under cell-free conditions
same,adduct,[1],these proteins were labeled with biotin and thus adducted by Mz-alkyne
